Common to all, as to test: Bacterial growth minimal inhibitory concentration (microdilution, CLSI M7-A7)
What all share (type): cell-based
Background: Broth dilution looks for growth in wells or tubes with falling amounts of substance.

In test [1] the test system is Staphylococcus aureus A798. The note with it: multiply-resistant strain (quinolone-resistant and methicillin-resistant), cation-adjusted Mueller-Hinton Broth; for MIC: Staphylococcus aureus, A798, read-out: MIC for S. aureus A798. The method, then:
(§1) Minimal Inhibitory Concentrations (MICs; […]) were determined in cation-adjusted Mueller-Hinton Broth by a microdilution method following the description given in “Methods for Dilution Antimicrobial Susceptibility Tests for Bacteria that Grow Aerobically”, Approved standard, 7th ed., Clinical and Laboratory Standards Institute (CLSI) Document M7-A7, Wayne, Pa., USA, 2006.

Test [2] concerns Moraxella catarrhalis A894. As to conditions: quinolone-sensitive strain, cation-adjusted Mueller-Hinton Broth; for MIC: Moraxella catarrhalis, A894. On the procedure:
as §1

Test [3] has as its system Enterococcus faecium A949. The note with it: multiply-resistant strain (quinolone-resistant and vancomycin-resistant), cation-adjusted Mueller-Hinton Broth; for MIC: Enterococcus faecium, A949, read-out: MIC for E. faecium A949. On the procedure:
as §1

Test [4] relates to Staphylococcus aureus ATCC29213. The note with it: methicillin-sensitive and quinolone-sensitive strain, cation-adjusted Mueller-Hinton Broth; for MIC: Staphylococcus aureus, ATCC29213, read-out: MIC for S. aureus ATCC29213. On the procedure:
as §1

In test [5] the test system is Streptococcus pneumonia ATTC49619. As to conditions: quinolone-sensitive strain, cation-adjusted Mueller-Hinton Broth; for MIC: Streptococcus pneumoniae, ATTC49619, read-out: MIC for S. pneumonia ATTC49619. On the procedure:
as §1

By MIC is commonly meant the lowest concentration that inhibits growth of the organism.

≈ marks a conversion by molar mass, not a printed value.

For `O=C(Cn1c(=O)ccc2ccc(F)cc21)NCCC1OC(=O)c2cc(C3=CCCC3)ccc21` (racemic) [Example 23, rac-N-[2-(5-Cyclopent-1-enyl-3-oxo-1,3-dihydro-isobenzofuran-1-yl)-ethyl]-2-(7-fluoro-2-oxo-2H-quinolin-1-yl)-acetamide], the MIC in test [1] was 1 µg/mL (≈ 2.24 µM); in test [2], > 8 µg/mL; in test [3] it was 0.5 µg/mL (≈ 1.12 µM); in test [4] it was 0.25 µg/mL (≈ 0.56 µM); in test [5], 4 µg/mL (≈ 8.96 µM).
With `CC(C)=Cc1ccc2c(c1)C(=O)OC2CCNC(=O)Cn1c(=O)ccc2ccc(F)cc21` (racemic) [Example 25, rac-2-(7-Fluoro-2-oxo-2H-quinolin-1-yl)-N-{2-[5-(2-methyl-propenyl)-3-oxo-1,3-dihydro-isobenzofuran-1-yl]-ethyl}-acetamide], the MIC in test [1] was 0.25 µg/mL (≈ 0.575 µM); in test [2] it was 4 µg/mL (≈ 9.21 µM); in test [3] it was 0.5 µg/mL (≈ 1.15 µM); in test [4], 0.063 µg/mL (≈ 0.145 µM); in test [5], 1 µg/mL (≈ 2.3 µM).
Consider `O=C(CC1OC(=O)c2cc(-c3ccc(F)c(F)c3)ccc21)NCCn1c(=O)ccc2ccc(F)cc21` (racemic) [Example 10, rac-2-[5-(3,4-Difluoro-phenyl)-3-oxo-1,3-dihydro-isobenzofuran-1-yl]-N-[2-(7-fluoro-2-oxo-2H-quinolin-1-yl)-ethyl]-acetamide], for which the MIC in test [1] is > 8 µg/mL; in test [2] it was > 8 µg/mL; in test [3] it was 2 µg/mL (≈ 4.06 µM); in test [4], 0.5 µg/mL (≈ 1.02 µM); in test [5], 4 µg/mL (≈ 8.12 µM).
Consider “(S)-9-Fluoro-1-[3-((R)-3-oxo-5-phenyl-1,3-dihydro-isobenzofuran-1-yl)-propylamino]-1,2-dihydro-pyrrolo[3,2,1-ij]quinolin-4-one and (S)-9-Fluoro-1-[3-((S)-3-oxo-5-phenyl-1,3-dihydro-isobenzofuran-1-yl)-propylamino]-1,2-dihydro-pyrrolo[3,2,1-ij]quinolin-4-one [Example 7]”, for which the “MIC for S. aureus A798” value in test [1] is 0.125 µg/mL. Moreover, the “MIC for M. catarrhalis A894” value in test [2] is 2 µg/mL. Also, in test [3], the “MIC for E. faecium A949” value worked out at 0.125 µg/mL. Moreover, in test [4], the “MIC for S. aureus ATCC29213” value is 0.031 µg/mL. Moreover, the “MIC for S. pneumonia ATTC49619” value in test [5] came to 0.125 µg/mL.
Take `O=C(Cn1c(=O)ccc2ccc(F)cc21)NCCC1OC(=O)c2cc(-c3cc(F)ccc3F)ccc21` (racemic) [Example 19, rac-N-{2-[5-(2,5-Difluoro-phenyl)-3-oxo-1,3-dihydro-isobenzofuran-1-yl]-ethyl}-2-(7-fluoro-2-oxo-2H-quinolin-1-yl)-acetamide]: the MIC in test [1] was 0.125 µg/mL (≈ 0.254 µM); in test [2] it was 0.25 µg/mL (≈ 0.508 µM); in test [3], 0.25 µg/mL (≈ 0.508 µM); in test [4], 0.063 µg/mL (≈ 0.128 µM); in test [5], 0.5 µg/mL (≈ 1.02 µM).
In the case of `O=C(CC1OC(=O)c2cc(-c3cc(F)ccc3F)ccc21)NCCn1c(=O)ccc2ccc(F)cc21` (racemic) [Example 9, rac-2-[5-(2,5-Difluoro-phenyl)-3-oxo-1,3-dihydro-isobenzofuran-1-yl]-N-[2-(7-fluoro-2-oxo-2H-quinolin-1-yl)-ethyl]-acetamide], the MIC in test [1] was 0.125 µg/mL (≈ 0.254 µM); in test [2], 0.125 µg/mL (≈ 0.254 µM); in test [3], 0.25 µg/mL (≈ 0.508 µM); in test [4], 0.031 µg/mL (≈ 0.063 µM); in test [5], 0.25 µg/mL (≈ 0.508 µM).
For `O=C(CC1OC(=O)c2cc(C3=CCCC3)ccc21)NCCn1c(=O)ccc2ccc(F)cc21` (racemic) [Example 12, rac-2-(5-Cyclopent-1-enyl-3-oxo-1,3-dihydro-isobenzofuran-1-yl)-N-[2-(7-fluoro-2-oxo-2H-quinolin-1-yl)-ethyl]-acetamide], the MIC stood at 0.25 µg/mL (≈ 0.56 µM) in test [1]; 1 µg/mL (≈ 2.24 µM) in test [2]; 0.25 µg/mL (≈ 0.56 µM) in test [3]; 0.031 µg/mL (≈ 0.0694 µM) in test [4]; 2 µg/mL (≈ 4.48 µM) in test [5].
Regarding `O=C(Cn1c(=O)ccc2ccc(F)cc21)NCCC1OC(=O)c2cc(-c3ccccc3)ccc21` (racemic) [Example 18, rac-2-(7-Fluoro-2-oxo-2H-quinolin-1-yl)-N-[2-(3-oxo-5-phenyl-1,3-dihydro-isobenzofuran-1-yl)-ethyl]-acetamide], the MIC in test [1] was 2 µg/mL (≈ 4.38 µM); in test [2], > 8 µg/mL; in test [3] it was 0.5 µg/mL (≈ 1.1 µM); in test [4] it was 0.25 µg/mL (≈ 0.548 µM); in test [5] it was 4 µg/mL (≈ 8.76 µM).
`COc1ccc2ncc(=O)n(CCNCCC3OC(=O)c4cc(-c5ccccc5)ccc43)c2n1` (racemic) [Example 2, rac-6-Methoxy-4-{2-[2-(3-oxo-5-phenyl-1,3-dihydro-isobenzofuran-1-yl)-ethylamino]-ethyl}-4H-pyrido[2,3-b]pyrazin-3-one]: the MIC in test [1] is 0.125 µg/mL (≈ 0.274 µM); in test [2], 0.5 µg/mL (≈ 1.1 µM); in test [3] it was 0.25 µg/mL (≈ 0.548 µM); in test [4] it was 0.031 µg/mL (≈ 0.0679 µM); in test [5], 0.5 µg/mL (≈ 1.1 µM).
Consider `O=C(Cn1c(=O)ccc2ccc(F)cc21)NCCC1OC(=O)c2cc(-c3cc(F)cc(F)c3)ccc21` (racemic) [Example 24, rac-N-{2-[5-(3,5-Difluoro-phenyl)-3-oxo-1,3-dihydro-isobenzofuran-1-yl]-ethyl}-2-(7-fluoro-2-oxo-2H-quinolin-1-yl)-acetamide], for which the MIC in test [1] stood at 0.5 µg/mL (≈ 1.02 µM); in test [2] it was 0.5 µg/mL (≈ 1.02 µM); in test [3], 0.5 µg/mL (≈ 1.02 µM); in test [4], 0.125 µg/mL (≈ 0.254 µM); in test [5], 2 µg/mL (≈ 4.06 µM).
For the compound `O=C(CC1OC(=O)c2cc(-c3cc(F)cc(F)c3)ccc21)NCCn1c(=O)ccc2ccc(F)cc21` (racemic) [Example 11, rac-2-[5-(3,5-Difluoro-phenyl)-3-oxo-1,3-dihydro-isobenzofuran-1-yl]-N-[2-(7-fluoro-2-oxo-2H-quinolin-1-yl)-ethyl]-acetamide], the MIC in test [1] stood at 0.25 µg/mL (≈ 0.508 µM); in test [2], 0.125 µg/mL (≈ 0.254 µM); in test [3], 0.25 µg/mL (≈ 0.508 µM); in test [4], 0.031 µg/mL (≈ 0.063 µM); in test [5], 0.25 µg/mL (≈ 0.508 µM).
Turning to `CC(C)=Cc1ccc2c(c1)C(=O)OC2CC(=O)NCCn1c(=O)ccc2ccc(F)cc21` (racemic) [Example 17, rac-N-[2-(7-Fluoro-2-oxo-2H-quinolin-1-yl)-ethyl]-2-[5-(2-methyl-propenyl)-3-oxo-1,3-dihydro-isobenzofuran-1-yl]-acetamide], the MIC in test [1] is ≤ 0.016 µg/mL; in test [2] it was 0.5 µg/mL (≈ 1.15 µM); in test [3], 0.063 µg/mL (≈ 0.145 µM); in test [4], ≤ 0.016 µg/mL; in test [5], 0.5 µg/mL (≈ 1.15 µM).
Regarding `O=C(CC1OC(=O)c2cc(C3=CCCCC3)ccc21)NCCn1c(=O)ccc2ccc(F)cc21` (racemic) [Example 16, rac-2-(5-Cyclohex-1-enyl-3-oxo-1,3-dihydro-isobenzofuran-1-yl)-N-[2-(7-fluoro-2-oxo-2H-quinolin-1-yl)-ethyl]-acetamide], the MIC was 0.063 µg/mL (≈ 0.137 µM) in test [1]; 0.5 µg/mL (≈ 1.09 µM) in test [2]; 0.25 µg/mL (≈ 0.543 µM) in test [3]; ≤ 0.016 µg/mL in test [4]; 0.5 µg/mL (≈ 1.09 µM) in test [5].
Turning to “rac-5-(2,5-Difluoro-phenyl)-3-oxo-1,3-dihydro-isobenzofuran-1-carboxylic acid [3-(7-fluoro-2-oxo-2H-quinolin-1-yl)-propyl]-amide [Example 20]”, in test [1], the “MIC for S. aureus A798” value turned out to be 0.063 µg/mL. For the same compound, in test [2], the “MIC for M. catarrhalis A894” value turned out to be 0.25 µg/mL. For the same compound, the “MIC for E. faecium A949” value in test [3] came to 1 µg/mL. Besides, in test [4], the “MIC for S. aureus ATCC29213” value is 0.063 µg/mL. In addition, the “MIC for S. pneumonia ATTC49619” value in test [5] was determined as 2 µg/mL.
In the case of `O=C(Cn1c(=O)ccc2ccc(F)cc21)NCCC1OC(=O)c2cc(C3=CCCCC3)ccc21` (racemic) [Example 22, rac-N-[2-(5-Cyclohex-1-enyl-3-oxo-1,3-dihydro-isobenzofuran-1-yl)-ethyl]-2-(7-fluoro-2-oxo-2H-quinolin-1-yl)-acetamide], the MIC is 0.125 µg/mL (≈ 0.271 µM) in test [1]; 1 µg/mL (≈ 2.17 µM) in test [2]; 0.5 µg/mL (≈ 1.09 µM) in test [3]; 0.031 µg/mL (≈ 0.0673 µM) in test [4]; 1 µg/mL (≈ 2.17 µM) in test [5].
Take “(S)-3-Oxo-5-phenyl-1,3-dihydro-isobenzofuran-1-carboxylic acid [2-((R)-9-fluoro-4-oxo-1,2-dihydro-4H-pyrrolo[3,2,1-ij]quinolin-1-ylamino)-ethyl]-amide and (S)-3-Oxo-5-phenyl-1,3-dihydro-isobenzofuran-1-carboxylic acid [2-((R)-9-fluoro-4-oxo-1,2-dihydro-4H-pyrrolo[3,2,1-ij]quinolin-1-ylamino)-ethyl]-amide [Example 14]”: in test [1], the “MIC for S. aureus A798” value worked out at 0.125 µg/mL. Moreover, the “MIC for M. catarrhalis A894” value in test [2] was determined as 4 µg/mL. Besides, the “MIC for E. faecium A949” value in test [3] came out at 0.5 µg/mL. Besides, the “MIC for S. aureus ATCC29213” value in test [4] was determined as 0.125 µg/mL. The “MIC for S. pneumonia ATTC49619” value in test [5] was 2 µg/mL.
With `O=C1OC(CCNCCn2c(=O)ccc3ccc(F)cc32)c2ccc(-c3ccccc3)cc21` (racemic) [Example 3, rac-7-Fluoro-1-{2-[2-(3-oxo-5-phenyl-1,3-dihydro-isobenzofuran-1-yl)-ethylamino]-ethyl}-1H-quinolin-2-one], the MIC in test [1] was determined as 0.125 µg/mL (≈ 0.282 µM); in test [2], 1 µg/mL (≈ 2.26 µM); in test [3], 0.25 µg/mL (≈ 0.565 µM); in test [4], 0.031 µg/mL (≈ 0.0701 µM); in test [5], 0.125 µg/mL (≈ 0.282 µM).
